Results on 17 compounds are retold here after publication PMC6429087, “Identification of Leishmania major UDP-Sugar Pyrophosphorylase Inhibitors Using Biosensor-Based Small Molecule Fragment Library Screening” (Molecules, 2019).

Broadly, the inhibition is the change of the read-out against control, counted positive when it falls. One may read the pIC50 as the IC50 on a negative log10 scale, so that one unit is a factor of ten. High values mean a low IC50, low ones a high IC50. Usually pKd stands for the negative decadic logarithm of the Kd, by convention in mol/L. In general, Km refers to the substrate concentration at which the rate is half of its maximum. As usually defined, the Vmax is the top rate of the reaction or transport when substrate is in excess. In general, kcat refers to the number of substrate molecules converted per active site and unit of time at saturation. Usually kcat/Km stands for the turnover number divided by the Michaelis constant.

The target of data set [1] is T1, hUGP (Homo sapiens, UniProt Q16851).
T1 construct: made in house
T1 sequence (Q16851 1-508): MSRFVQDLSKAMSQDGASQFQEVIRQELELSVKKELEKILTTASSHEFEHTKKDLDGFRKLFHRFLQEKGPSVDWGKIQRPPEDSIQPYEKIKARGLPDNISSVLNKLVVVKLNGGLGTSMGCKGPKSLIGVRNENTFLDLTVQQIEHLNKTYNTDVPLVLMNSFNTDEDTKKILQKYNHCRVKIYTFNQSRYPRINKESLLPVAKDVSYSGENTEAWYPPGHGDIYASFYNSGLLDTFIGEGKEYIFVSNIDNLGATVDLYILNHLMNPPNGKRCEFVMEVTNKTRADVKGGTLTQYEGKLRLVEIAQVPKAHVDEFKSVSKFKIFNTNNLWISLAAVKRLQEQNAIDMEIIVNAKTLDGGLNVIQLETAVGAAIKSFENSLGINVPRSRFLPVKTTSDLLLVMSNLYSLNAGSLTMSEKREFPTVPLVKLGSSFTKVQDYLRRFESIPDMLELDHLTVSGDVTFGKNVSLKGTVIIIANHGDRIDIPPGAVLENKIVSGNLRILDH
Put plainly: HPLC-based enzyme activity assay, hUGP. It counts as biochemical. To be noted: 10% DMSO; for inhibition of hUGP (in words): 500 µM / high compound concentration; for decrease of hUGP activity: 500 µM compound. As for the experimental part: (§1) Compounds were tested at a concentration of 500 µM with 20 nM enzyme in an high-performance liquid chromatography (HPLC)-based assay at a final reaction volume of 100 µL. The DMSO concentration in the reaction was kept at 10%. The reaction buffer consisted of 10 mM Tris-HCl pH 8.0, 2 mM MgCl2, 10 mM NaCl, 0.005 U of inorganic pyrophosphatase (Thermo Fisher Scientific, Vilnius, Lithuania), and 1 mM Dithiothreitol (DTT) (for LmUSP and LmUGP only). Protein was incubated with the inhibitors and UTP (final concentration of 0.8 mM in reaction) for 30 min at room temperature, before the addition of the reaction buffer. […] The samples were spun down and the supernatants applied to a Dionex CarboPac™ PA10 column (Thermo Fisher Scientific, Sunnyvale, CA, USA). UDP-Gal or UDP-Glc (products) were separated from UTP (substrate), UMP, and UDP (both, UTP hydrolysis products) with a NaCl gradient elution ranging from 0 to 500 mM NaCl over 13 min at 0.6 mL/min. Absorption of the uracil moiety was detected at 260 nm. The peak area of UDP-Gal or UDP-Glc in reactions with inhibitors was compared to a control containing 10% DMSO. Protein concentrations were calculated from the measured UV-absorbance at 280 nm (Implen NanoPhotometer N60, Implen GmbH, München, Germany), and the proteins’ individual extinction coefficients were calculated using the online ProtParam tool (http://web.expasy.org/protparam/). […] Corresponding IC50 values were calculated by using nonlinear regression analysis with variable slope, in GraphPad Prism version 4.00 (GraphPad Software, San Diego, CA, USA).

Data set [2] has as its target T2, LmUSP (Leishmania major, UniProt D3G6S4). Put plainly: HPLC-based enzyme activity assay, LmUSP (UDP-Gal production). It counts as biochemical. To be noted: for inhibition at 500 µM: 500 µM compound, 10% DMSO, read-out: inhibition of LmUSP activity (UDP-Gal production) compared to DMSO control; for pIC50: 95% confidence intervals, concentrations 7 µM to 500 µM. Here is the method:
as §1

In data set [3] the target is LmUGP (Leishmania major, UniProt Q4QDU3). Put plainly: HPLC-based enzyme activity assay, LmUGP (UDP-Glc production). Type of data set: biochemical. Conditions: for inhibition at 500 µM: 500 µM compound, 10% DMSO; for pIC50: 95% confidence intervals, concentrations 7 µM to 500 µM. Here is the method: as §1
Data set [4] deals with T2, LmUSP. Put plainly: Bio-layer interferometry (BLI) binding to biotinylated LmUSP on Super Streptavidin biosensors. Conditions: for Primary Binding Response: BLI primary screen, fragment 200 µM, 200 µM UTP in running buffer. Here is the method:
A vector containing the His(6)-biotin acceptor peptide (BAP) tag was kindly provided by Prof. Mike Ferguson from the University of Dundee. The BAP tag was inserted in the XbaI and NdeI restrictions site of the previously described pET22b-LmUSP [21]. The plasmid with insert was then transformed into the E. coli BL21(DE3) expression strain, and LmUSP was expressed and purified, as described previously. Exactly 2 mg of TEV protease was added to cleave off the His tag. The protein was dialyzed in 3 × 1 L Buffer C (50 mM TRIS pH 8.0, 150 mM NaCl, 10 mM MgCl2). A concentration of 100 µM D-Biotin, 500 µM ATP, and […] BirA enzyme were added to the protein and incubated for 18 hr for biotinylation. The sample was concentrated to 11 mL, using a Vivaspin 20 30 kDa PES centrifugal concentrator (Sartorious, Stonehouse, United Kingdom). The protein was loaded onto a Superdex 200 XK26/60 equilibrated with Buffer C on the AKTA Pure at 4 °C. The eluted monomeric protein was then concentrated to 0.98 mg/mL using a Vivaspin 20 30 kDa PES centrifugal concentrator, and used for loading onto super streptavidin (SSA) biosensors (Fortebio, Shanghai, China, Part No. 18-5057, Lot No. 1612162).
The loading response to SSA biosensors was measured to find the optimal protein concentration to be used for the screen. Briefly, biosensor tips were hydrated in assay buffer (50 mM Tris pH 8.0, 150 mM NaCl, 10 mM MgCl2) for a minimum of 5 min before being sequentially transferred to assay wells containing 1) assay buffer (60 s) to establish the baseline, 2) protein at 12.5, 25, or 50 µg/mL (900 s) to measure protein loading, and 3) assay buffer to assess the reversibility of protein binding to the sensor.
For fragment screening, 16 SSA biosensors were prepared by loading LmUSP (12.5 µg/mL) for 900 s; free streptavidin sites were then blocked with biocytin (10 µg/mL) for 120 s, and finally washed in buffer W (50 mM Tris pH 8.0, 150 mM NaCl, 10 mM MgCl2, 200 µM UTP) for 60 s. In parallel, another 16 SSA sensors were loaded with 10 µg/mL biocytin alone, which acts as a quenching agent to block streptavidin sites on the sensor surface, and then washed with buffer W. These were used as reference sensors.
Initial screening was performed with DDU fragment set (965 fragments) at a single point concentration of 200 µM. The assay consisted of a 60 s baseline step, a 60 s association step, and a 60 s dissociation step. The assay was repeated with the streptavidin blocked control biosensors. Response levels for each compound were calculated by baseline subtraction, and the subtraction of the reference responses from the LmUSP responses. From the initial putative hits, compounds were further validated in a […] concentration series using 3-fold dilutions of each fragment ranging from 500 µM to 2.05 µM. Data were processed, and kinetic parameters were calculated, using the ForteBio software. A visual inspection of curves alongside steady state fitting was used to identify fragments of interest.
(In general: Biolayer interferometry detects binding as a change in optical thickness at a sensor tip.)

Data set [5] deals with T2, LmUSP. To be noted: read-out: Km value of UTP; cited from earlier work.
Data set [6] deals with O=P(O)(O)O[C@H]1O[C@H](CO)[C@H](O)[C@H](O)[C@H]1O. Kind of data set: purified protein, by the assay type. To be noted: 0.8 mM UTP, 25 °C, pH 8.0.
Where [7] appears, read: BLI 7-point concentration series 2 µM to 500 µM, steady state fitting, read-out: Estimated KD.

pIC50, pKd: −log10 of the molar value. Where two headings read alike, the source gives them in different places. Some results are limits rather than exact numbers.

In the case of `O=C(Cn1c(=O)[nH]c2ccccc2c1=O)Nc1ccc2[nH]ccc2c1` [#4], in data set [1], the “inhibition of hUGP (in words)” value is on record as “little effect” and the “decrease of hUGP activity” value is “less than 20%”. Further, in data set [2], the inhibition at 500 µM was ≥ 80% and the pIC50 is 3.76 to 3.87. In data set [3], the inhibition at 500 µM is > 95% and the pIC50 was 3.87 to 3.90.
For `CC(Cc1c[nH]c2ccccc12)NC(=O)Cn1c(=O)[nH]c2ccccc2c1=O` (stereo not shown) [#8A], the pIC50 in data set [2] and in data set [3] was < 3.60 throughout.
Turning to `O=C(Cn1c(=O)[nH]c2ccccc2c1=O)NCCc1c[nH]c2ccc(Cl)cc12` [#8B], in data set [1], the “inhibition of hUGP (in words)” value is recorded as “clear inhibition”. The negative logarithm of the IC50 (pIC50) in data set [2] was 4.18 to 4.33; in data set [3], 4.16 to 4.26.
Regarding `COc1ccc2[nH]cc(CCNC(=O)Cn3c(=O)[nH]c4ccccc4c3=O)c2c1` [#8C], the pIC50 in data set [2] and in data set [3] was < 3.60 in each case.
Take `O=C(Cn1cnc2ccccc2c1=O)NCCc1c[nH]c2ccc(Cl)cc12` [#8D]: in data set [1], the “inhibition of hUGP (in words)” value is reported as “clear inhibition”. Moreover, the pIC50 was 3.71 to 3.77 in data set [2] and 3.62 to 3.72 in data set [3].
On to `O=C(Cn1cnc2ccccc2c1=O)NCCc1c[nH]c2ccc(F)cc12` [#8E], for which the “inhibition of hUGP (in words)” value in data set [1] is “clear inhibition”. Also, the figures for the pIC50 in data set [2] and in data set [3] were 4.33 to 4.39 and 4.33 to 4.42, respectively.
Regarding `O=C(Cn1c(=O)[nH]c2ccccc2c1=O)NCCc1c[nH]c2ccccc12` [#8], in data set [1], the “inhibition of hUGP (in words)” value was “little effect” and the “decrease of hUGP activity” value is given as “less than 20%”. In data set [2], the inhibition at 500 µM was ≥ 80% and the pIC50 was 3.97 to 4.11. In addition, in data set [3], the inhibition at 500 µM was > 95% and the pIC50 is 3.82 to 3.92.
With `O=C(O)Cc1cccc(C(F)(F)F)c1` [DDD00095351], in data set [4] (setting [7]), the pKd is 4.08. Further, in data set [4], the “Primary Binding Response” value was 0.127.
`COCCNC(=O)n1c(=O)oc2ccccc21` [DDD00102262]: in data set [4] (setting [7]), the pKd is 4.14. Also, in data set [4], the “Primary Binding Response” value was found to be 0.077.
For the compound `Cn1c(=O)n(CCN)c(=O)c2ccccc21` [DDD00808259], the pKd in data set [4] (setting [7]) was 4.17. Moreover, the “Primary Binding Response” value in data set [4] amounted to 0.1728.
As for `CC(C(=O)O)c1cccc(F)c1` (stereo not shown) [DDD01305586], the negative-log Kd (pKd) in data set [4] (setting [7]) was 4.22. Also, the “Primary Binding Response” value in data set [4] came out at 0.1541.
Turning to `O=c1ccn([C@@H]2O[C@H](COP(=O)(O)OP(=O)(O)OP(=O)(O)O)[C@@H](O)[C@H]2O)c(=O)[nH]1` [UTP, uridine triphosphate, reference compound], in data set [4], the pKd is 4.05. Moreover, the Km in data set [5] is 100 µM.
For the compound “LmUSP F383R mutant (Leishmania major; F383R)”, in data set [6] (other: LmUSP F383R), the Km turned out to be 364.00 ± 22.20 µM, the Vmax came out at 14.8 µmol/min/mg, the kcat turned out to be 17.3 s⁻¹ and the kcat/Km was determined as 47000 M⁻¹ s⁻¹.
Turning to “LmUSP V199W mutant (Leishmania major; V199W)”, in data set [6] (other: LmUSP V199W), the Km is 1007.25 ± 18.03 µM, the Vmax is 76.8 µmol/min/mg, the kcat was found to be 90.2 s⁻¹ and the kcat/Km amounted to 89000 M⁻¹ s⁻¹.
On to “LmUSP V330W mutant (Leishmania major; V330W)”, for which, in data set [6] (other: LmUSP V330W), the Km turned out to be 1255.00 ± 145.66 µM, the Vmax came out at 272 µmol/min/mg, the catalytic constant (kcat) stood at 319 s⁻¹ and the kcat/Km came to 255000 M⁻¹ s⁻¹.
“LmUSP V330W/F383R mutant (Leishmania major; F383R/V330W)”: in data set [6] (other: LmUSP V330W/F383R), the Km is listed as 276.45 ± 51.26 µM, the Vmax was found to be 21.8 µmol/min/mg, the turnover number (kcat) came to 25.6 s⁻¹ and the kcat/Km stood at 93000 M⁻¹ s⁻¹.
With LmUSP wild type (Leishmania major), in data set [6] (other: wild-type LmUSP), the Km amounted to 529.20 ± 24.60 µM, the maximum rate (Vmax) stood at 184 µmol/min/mg, the kcat worked out at 216 s⁻¹ and the kcat/Km turned out to be 409000 M⁻¹ s⁻¹.
